In patent publication US12252524B2, “GIP/GLP1 co-agonist compounds” (Eli Lilly and Company, priority 2018, dated 2025) one finds Ki and EC50 data, which are given here for five molecules.

The target in one assay is T1, human Gcg receptor (Homo sapiens, UniProt P47871).
T1 construct: expressed in transfected cells; crude membranes
Description: [125I]-Glucagon binding (SPA), human Gcg receptor. To be noted: read-out: hGLcgR Ki, nM (SEM, n). The gist of the method:
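Cell pellets were lysed in hypotonic Tris buffer, pH 7.5, homogenized, and spun at low then high speed to give crude membranes. Ki was derived from the fitted IC50.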

For another assay, the target named is T2, human GIP receptor (Homo sapiens, UniProt P48546).
T2 construct: expressed in transfected cells; crude membranes
T2 sequence (P48546 22-466): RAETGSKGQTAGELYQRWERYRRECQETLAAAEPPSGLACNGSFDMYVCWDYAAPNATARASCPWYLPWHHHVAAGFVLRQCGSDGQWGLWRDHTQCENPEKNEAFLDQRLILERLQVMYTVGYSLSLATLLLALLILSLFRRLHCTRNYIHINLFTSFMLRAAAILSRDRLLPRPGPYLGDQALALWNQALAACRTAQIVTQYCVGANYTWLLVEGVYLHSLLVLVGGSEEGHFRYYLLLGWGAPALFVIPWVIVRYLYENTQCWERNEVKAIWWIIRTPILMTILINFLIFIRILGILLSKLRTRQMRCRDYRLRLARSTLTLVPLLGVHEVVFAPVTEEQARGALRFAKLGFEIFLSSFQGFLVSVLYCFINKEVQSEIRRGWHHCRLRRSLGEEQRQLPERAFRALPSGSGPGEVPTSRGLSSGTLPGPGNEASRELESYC
Description: [125I]-GIP binding (SPA), human GIP receptor. To be noted: read-out: hGIPR Ki, nM (SEM, n).

Assay [1] addresses human GLP-1 receptor (GLP-1R) (Homo sapiens, UniProt P43220). Nature of the assay: cAMP pharmacological functional assay in presence of casein, hGLP-1R. The assay is classed as cell-based. Conditions: HEK293 cells expressing hGLP-1R, 0.1% Casein, geometric mean; read-out: hGLP1R cAMP Rel EC50 nM (SEM, n).
Assay [2] addresses T3, gastric inhibitory peptide receptor (GIPR) (Homo sapiens, UniProt P48546).
T3 sequence (P48546 22-466): T2 sequence (P48546 22-466)
Nature of the assay: cAMP pharmacological functional assay in presence of casein, hGIPR. Conditions: HEK293 cells expressing hGIPR, 0.1% Casein, geometric mean; read-out: hGIPR cAMP Rel EC50 nM (SEM, n). The assay is classed as cell-based.

The target in the next assay is human GLP-1R (Homo sapiens, UniProt P43220). Description: [125I]-GLP-1 binding (SPA), human GLP-1 receptor. More on the design: expressed in transfected cells; crude membranes. To be noted: read-out: hGLP1R Ki, (nM) (SEM, n). The gist of the method: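 Ki values are geometric means with SEM over independent replicates on different days, derived from IC50s fitted by four-parameter nonlinear regression. The assay used crude cell membranes in HEPES buffer, pH 7.4, containing CaCl2, MgCl2, bacitracin and TWEEN-20.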
human GLP-1R, sequence (P43220 24-463): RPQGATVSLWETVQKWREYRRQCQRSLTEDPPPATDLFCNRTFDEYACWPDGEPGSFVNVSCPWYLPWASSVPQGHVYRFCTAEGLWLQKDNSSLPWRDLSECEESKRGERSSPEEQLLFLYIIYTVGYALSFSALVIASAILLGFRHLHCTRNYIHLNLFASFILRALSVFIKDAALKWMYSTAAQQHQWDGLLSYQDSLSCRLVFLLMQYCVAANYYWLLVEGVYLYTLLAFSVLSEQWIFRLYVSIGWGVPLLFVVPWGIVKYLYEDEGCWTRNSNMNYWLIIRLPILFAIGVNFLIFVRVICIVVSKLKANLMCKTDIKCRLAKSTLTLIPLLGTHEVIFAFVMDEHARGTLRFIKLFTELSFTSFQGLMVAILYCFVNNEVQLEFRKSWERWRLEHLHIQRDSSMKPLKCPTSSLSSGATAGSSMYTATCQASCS

As a reminder, the Ki is the equilibrium dissociation constant of an inhibitor or competing ligand from its target. In general, EC50 refers to the concentration giving half of the maximal effect.

Numbered stars: 1 amine (or outer) side, 2 acyl side, 3 side chain; on linkers, the order of the positions; unused ones are H or OH. Square brackets hold non-standard residues; d marks the D form. Side chains are listed from the residue outwards. Peptide text beside a SMILES is read from it. * marks the point of attachment. C20 diacid = O=C(O)CCCCCCCCCCCCCCCCCCC(=O)*; αMePhe(2-F) = C[C@](N)(Cc1ccccc1F)C(=O)O; γGlu = O=C(O)[C@H](CCC(=O)[*:2])N[*:1]; αMeF = C[C@](N)(Cc1ccccc1)C(=O)O; αMeL = CC(C)C[C@](C)(N)C(=O)O; AEEA = NCCOCCOCC(=O)O; Aib = CC(C)(N)C(=O)O

human GLP-1 receptor (GLP-1R), sequence (P43220 24-463): as above
T1 sequence (P47871 26-477): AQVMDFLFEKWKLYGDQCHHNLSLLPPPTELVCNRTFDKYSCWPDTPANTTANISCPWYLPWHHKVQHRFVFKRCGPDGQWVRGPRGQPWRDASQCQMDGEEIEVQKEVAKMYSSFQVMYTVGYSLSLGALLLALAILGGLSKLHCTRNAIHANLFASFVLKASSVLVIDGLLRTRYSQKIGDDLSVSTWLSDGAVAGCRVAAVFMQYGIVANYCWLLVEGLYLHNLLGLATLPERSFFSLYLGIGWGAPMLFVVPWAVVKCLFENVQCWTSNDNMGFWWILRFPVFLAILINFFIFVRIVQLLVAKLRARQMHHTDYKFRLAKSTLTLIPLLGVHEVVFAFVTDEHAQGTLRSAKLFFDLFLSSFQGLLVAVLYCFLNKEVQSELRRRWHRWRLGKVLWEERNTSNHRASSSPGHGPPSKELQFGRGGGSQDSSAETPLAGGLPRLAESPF

As for `CC[C@H](C)[C@H](NC(=O)[C@H](CC(C)C)NC(=O)[C@H](Cc1ccc(O)cc1)NC(=O)[C@@H](CCC(=O)O)NC(=O)[C@@H](NC(=O)[C@H](Cc1ccccc1)NC(=O)[C@H](CCC(=O)O)NC(=O)C(C)(C)NC(=O)[C@H](CCC(N)=O)NC(=O)[C@H](C)NC(=O)[C@H](CCCCNC(=O)COCCOCCNC(=O)COCCOCCNC(=O)CC[C@H](NC(=O)CCCCCCCCCCCCCCCCCCC(=O)O)C(=O)O)NC(=O)[C@H](CCC(=O)O)NC(=O)[C@H](CC(=O)O)NC(=O)[C@H](CC(C)C)NC(=O)[C@H](CC(C)C)NC(=O)[C@@H](NC(=O)[C@H](CO)NC(=O)[C@H](Cc1ccc(O)cc1)NC(=O)[C@H](CC(=O)O)NC(=O)[C@H](CO)NC(=O)[C@@H](NC(=O)[C@](C)(Cc1ccccc1F)NC(=O)[C@@H](NC(=O)CNC(=O)[C@H](CCC(=O)O)NC(=O)C(C)(C)NC(=O)[C@@H](N)Cc1ccc(O)cc1)[C@@H](C)O)[C@@H](C)O)[C@@H](C)CC)[C@@H](C)CC)C(=O)N[C@@H](CCC(=O)O)C(=O)NCC(=O)NCC(=O)N1CCC[C@H]1C(=O)N[C@@H](CO)C(=O)N[C@@H](CO)C(=O)NCC(=O)N[C@@H](C)C(=O)N1CCC[C@H]1C(=O)N1CCC[C@H]1C(=O)N1CCC[C@H]1C(=O)N[C@@H](CO)C(N)=O` [Example 226] (H-Y[Aib]EGT[αMePhe(2-F)]TSDYSILLDEK([AEEA-AEEA-γGlu-C20 diacid])AQ[Aib]EFI[dE]YLIEGGPSSGAPPPS-NH2), the inhibitory constant (Ki) came out at 200 nM at human Gcg receptor, 0.0254 nM at human GIP receptor and 4.1 nM at human GLP-1R. Besides, the EC50 in assay [1] was 0.0284 nM; in assay [2], 0.0461 nM.
The matching figures for `CC[C@H](C)[C@H](NC(=O)[C@H](CC(C)C)NC(=O)[C@H](Cc1ccc(O)cc1)NC(=O)[C@@H](CCC(=O)O)NC(=O)[C@@H](NC(=O)[C@H](Cc1ccccc1)NC(=O)[C@H](CCC(=O)O)NC(=O)C(C)(C)NC(=O)[C@H](CCC(N)=O)NC(=O)[C@H](C)NC(=O)[C@H](CCCCNC(=O)COCCOCCNC(=O)COCCOCCNC(=O)CC[C@H](NC(=O)CCCCCCCCCCCCCCCCCCC(=O)O)C(=O)O)NC(=O)[C@H](CCC(=O)O)NC(=O)[C@H](CC(=O)O)NC(=O)[C@H](CC(C)C)NC(=O)[C@](C)(CC(C)C)NC(=O)[C@@H](NC(=O)[C@H](CO)NC(=O)[C@H](Cc1ccc(O)cc1)NC(=O)[C@H](CC(=O)O)NC(=O)[C@H](CO)NC(=O)[C@@H](NC(=O)[C@](C)(Cc1ccccc1)NC(=O)[C@@H](NC(=O)CNC(=O)[C@H](CCC(=O)O)NC(=O)C(C)(C)NC(=O)[C@@H](N)Cc1ccc(O)cc1)[C@@H](C)O)[C@@H](C)O)[C@@H](C)CC)[C@@H](C)CC)C(=O)N[C@@H](CCC(=O)O)C(=O)NCC(=O)NCC(=O)N1CCC[C@H]1C(=O)N[C@@H](CO)C(=O)N[C@@H](CO)C(=O)NCC(=O)N[C@@H](C)C(=O)N1CCC[C@H]1C(=O)N1CCC[C@H]1C(=O)N1CCC[C@H]1C(=O)N[C@@H](CO)C(N)=O` [Example 227] (H-Y[Aib]EGT[αMeF]TSDYSI[αMeL]LDEK([AEEA-AEEA-γGlu-C20 diacid])AQ[Aib]EFI[dE]YLIEGGPSSGAPPPS-NH2): 113 nM, 0.0146 nM, 2.01 nM, 0.0329 nM and 0.0414 nM.
`CC[C@H](C)[C@H](NC(=O)[C@H](CC(C)C)NC(=O)[C@H](Cc1ccc(O)cc1)NC(=O)[C@@H](CCC(=O)O)NC(=O)[C@@H](NC(=O)[C@H](Cc1ccccc1)NC(=O)[C@H](CCC(=O)O)NC(=O)C(C)(C)NC(=O)[C@H](CCC(N)=O)NC(=O)[C@H](C)NC(=O)[C@H](CCCCNC(=O)COCCOCCNC(=O)COCCOCCNC(=O)CC[C@H](NC(=O)CCCCCCCCCCCCCCCCCCC(=O)O)C(=O)O)NC(=O)[C@H](CCCCN)NC(=O)[C@H](CC(=O)O)NC(=O)[C@H](CC(C)C)NC(=O)[C@](C)(CC(C)C)NC(=O)[C@@H](NC(=O)[C@H](CO)NC(=O)[C@H](Cc1ccc(O)cc1)NC(=O)[C@H](CC(=O)O)NC(=O)[C@H](CO)NC(=O)[C@@H](NC(=O)[C@](C)(Cc1ccccc1)NC(=O)[C@@H](NC(=O)CNC(=O)[C@H](CCC(=O)O)NC(=O)C(C)(C)NC(=O)[C@@H](N)Cc1ccc(O)cc1)[C@@H](C)O)[C@@H](C)O)[C@@H](C)CC)[C@@H](C)CC)C(=O)N[C@@H](CCC(=O)O)C(=O)NCC(=O)NCC(=O)N1CCC[C@H]1C(=O)N[C@@H](CO)C(=O)N[C@@H](CO)C(=O)NCC(N)=O` [Example 228] (H-Y[Aib]EGT[αMeF]TSDYSI[αMeL]LDKK([AEEA-AEEA-γGlu-C20 diacid])AQ[Aib]EFI[dE]YLIEGGPSSG-NH2): the inhibition constant (Ki) is 182 nM at human Gcg receptor, 0.028 nM on human GIP receptor and 2.43 nM at human GLP-1R. The half-maximal effective concentration (EC50) was found to be 0.0282 nM in assay [1] and 0.0503 nM in assay [2].
As for `CC[C@H](C)[C@H](NC(=O)[C@H](CC(C)C)NC(=O)[C@H](Cc1ccc(O)cc1)NC(=O)[C@@H](CCC(=O)O)NC(=O)[C@@H](NC(=O)[C@H](Cc1ccccc1)NC(=O)[C@H](CCC(=O)O)NC(=O)C(C)(C)NC(=O)[C@H](CCC(N)=O)NC(=O)[C@H](C)NC(=O)[C@H](CCCCNC(=O)COCCOCCNC(=O)COCCOCCNC(=O)CC[C@H](NC(=O)CCCCCCCCCCCCCCCCCCC(=O)O)C(=O)O)NC(=O)[C@H](CCC(=O)O)NC(=O)[C@H](CC(=O)O)NC(=O)[C@H](CC(C)C)NC(=O)[C@](C)(CC(C)C)NC(=O)[C@H](CO)NC(=O)[C@H](Cc1ccc(O)cc1)NC(=O)[C@H](CC(=O)O)NC(=O)[C@H](CO)NC(=O)[C@@H](NC(=O)[C@](C)(Cc1ccccc1F)NC(=O)[C@@H](NC(=O)CNC(=O)[C@H](CCC(=O)O)NC(=O)C(C)(C)NC(=O)[C@@H](N)Cc1ccc(O)cc1)[C@@H](C)O)[C@@H](C)O)[C@@H](C)CC)C(=O)N[C@@H](CCC(=O)O)C(=O)NCC(=O)NCC(=O)N1CCC[C@H]1C(=O)N[C@@H](CO)C(=O)N[C@@H](CO)C(=O)NCC(=O)N[C@@H](C)C(=O)N1CCC[C@H]1C(=O)N1CCC[C@H]1C(=O)N1CCC[C@H]1C(=O)N[C@@H](CO)C(N)=O` [Example 229] (H-Y[Aib]EGT[αMePhe(2-F)]TSDYS[αMeL]LDEK([AEEA-AEEA-γGlu-C20 diacid])AQ[Aib]EFI[dE]YLIEGGPSSGAPPPS-NH2), the Ki at human Gcg receptor was greater than 1100 nM; on human GIP receptor it was 2.47 nM; at human GLP-1R it was 36.2 nM. In addition, the EC50 amounted to 2.11 nM in assay [1] and 4.79 nM in assay [2].
As to `CC[C@H](C)[C@H](NC(=O)[C@H](CC(C)C)NC(=O)[C@H](Cc1ccc(O)cc1)NC(=O)[C@@H](CCC(=O)O)NC(=O)[C@@H](NC(=O)[C@H](Cc1ccccc1)NC(=O)[C@H](CCC(=O)O)NC(=O)C(C)(C)NC(=O)[C@H](CCC(N)=O)NC(=O)[C@H](C)NC(=O)[C@H](CCCCNC(=O)COCCOCCNC(=O)COCCOCCNC(=O)CC[C@H](NC(=O)CCCCCCCCCCCCCCCCCCC(=O)O)C(=O)O)NC(=O)[C@H](Cc1c[nH]cn1)NC(=O)[C@H](CC(=O)O)NC(=O)[C@H](CC(C)C)NC(=O)[C@](C)(CC(C)C)NC(=O)[C@@H](NC(=O)[C@H](CO)NC(=O)[C@H](Cc1ccc(O)cc1)NC(=O)[C@H](CC(=O)O)NC(=O)[C@H](CO)NC(=O)[C@@H](NC(=O)[C@](C)(Cc1ccccc1F)NC(=O)[C@@H](NC(=O)CNC(=O)[C@H](CCC(=O)O)NC(=O)C(C)(C)NC(=O)[C@@H](N)Cc1ccc(O)cc1)[C@@H](C)O)[C@@H](C)O)[C@@H](C)CC)[C@@H](C)CC)C(=O)N[C@@H](CCC(=O)O)C(=O)NCC(=O)NCC(=O)N1CCC[C@H]1C(=O)N[C@@H](CO)C(=O)N[C@@H](CO)C(=O)NCC(=O)N[C@@H](C)C(=O)N1CCC[C@H]1C(=O)N1CCC[C@H]1C(=O)N1CCC[C@H]1C(=O)N[C@@H](CO)C(N)=O` [Example 230] (H-Y[Aib]EGT[αMePhe(2-F)]TSDYSI[αMeL]LDHK([AEEA-AEEA-γGlu-C20 diacid])AQ[Aib]EFI[dE]YLIEGGPSSGAPPPS-NH2), the Ki was 494 nM on human Gcg receptor, 0.042 nM on human GIP receptor and 4.68 nM at human GLP-1R. The 50% effective concentration (EC50) worked out at 0.0491 nM in assay [1] and 0.0431 nM in assay [2].
